Results as given in patent publication US7550451B2, “Progesterone receptor modulators with increased antigonadotropic activity for female birth control and hormone replacement therapy” (Bayer Schering Pharma AG, priority 2002, dated 2009).

Tests used:
adult female rats = assay: Nidation-inhibiting test (antifertile effects in the perinidation phase); assay type: in vivo; details: day 5-7 of pregnancy, rat
Description: The determination of the progesterone-antagonistic activities was carried out on adult female rats in the nidation-inhibiting test. The principle of the test is described as follows: progesterone preserves pregnancy in all stages. An early-abortive action can accordingly be expected from competitive progesterone antagonists. Female rats (Schoe strain: WIST Tierzucht GmbH Schönwalde) with a weight of 180-200 g were subjected daily to a cycle control and paired up in proestrus. The beginning of pregnancy was determined by detecting sperm in the vaginal smear on the same day (=day 1 of pregnancy=d1 p.c.). From the 5th-7th day of pregnancy, the test substances were injected subcutaneously daily. On the 9th day, vaginal smears were taken, then the animals were autopsied and the uteri were prepared. The degeneration of implants and pathological, hemorrhagic and otherwise abnormal nidation sites were counted as abortions and are shown in Table 2.

Androgen receptor = molecular target: T1, Androgen receptor (Rattus norvegicus, UniProt P15207); assay: Receptor binding affinity, androgen receptor (competitive binding, 3H-metribolone); details: prostate cytosol of castrated rat; for AR relative molar binding affinity (RBA) a) against RU 1881: reference RU 1881 (metribolone); for AR relative molar binding affinity (RBA) b) against dihydrotestosterone (DHT): reference dihydrotestosterone
T1 construct: Prostate cytosol of the castrated rat; from tissue; host or cells: prostate cytosol of castrated rat
T1 sequence (P15207 1-902): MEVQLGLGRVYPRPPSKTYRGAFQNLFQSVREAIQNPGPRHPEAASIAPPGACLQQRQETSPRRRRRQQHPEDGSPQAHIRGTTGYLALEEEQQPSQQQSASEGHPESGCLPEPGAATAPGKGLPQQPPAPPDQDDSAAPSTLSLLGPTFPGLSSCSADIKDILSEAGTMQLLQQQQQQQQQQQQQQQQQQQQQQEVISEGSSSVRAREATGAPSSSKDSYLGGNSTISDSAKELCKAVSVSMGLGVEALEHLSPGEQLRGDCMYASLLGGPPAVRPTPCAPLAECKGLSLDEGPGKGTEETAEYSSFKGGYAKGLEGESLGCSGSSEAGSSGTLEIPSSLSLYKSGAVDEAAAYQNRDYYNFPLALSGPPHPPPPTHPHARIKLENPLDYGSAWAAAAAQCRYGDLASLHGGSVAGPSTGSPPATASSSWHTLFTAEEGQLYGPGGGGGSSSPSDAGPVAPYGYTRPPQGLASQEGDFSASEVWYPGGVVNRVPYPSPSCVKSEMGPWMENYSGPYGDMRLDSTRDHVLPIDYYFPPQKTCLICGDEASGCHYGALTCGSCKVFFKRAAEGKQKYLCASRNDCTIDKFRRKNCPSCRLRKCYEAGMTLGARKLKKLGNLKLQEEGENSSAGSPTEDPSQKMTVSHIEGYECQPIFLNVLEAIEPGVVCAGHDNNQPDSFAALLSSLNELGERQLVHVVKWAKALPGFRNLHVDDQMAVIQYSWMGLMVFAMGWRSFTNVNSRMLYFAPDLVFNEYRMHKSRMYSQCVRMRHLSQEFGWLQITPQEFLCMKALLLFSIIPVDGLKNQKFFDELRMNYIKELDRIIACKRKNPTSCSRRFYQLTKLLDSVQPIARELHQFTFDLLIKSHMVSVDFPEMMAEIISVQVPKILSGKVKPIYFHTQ
Description: (§1) The receptor binding affinity was determined by competitive binding of a specifically binding ^3H-labeled hormone (tracer) and the compound to be tested on receptors in the cytosol from animal target organs. In this case, receptor saturation and reaction equilibrium were sought.
(§2) The tracers and increasing concentrations of the compound to be tested (competitor) were co-incubated with the receptor-containing cytosol fraction at 0-4° C. over 18 hours. After separation of the unbonded tracer with carbon-dextran suspension, the receptor-bonded tracer portion was measured for each concentration, and the IC50 was determined from the concentration sequence. As a quotient of the IC50 values of the reference substance and the compound to be tested (×100%), the relative molar binding affinity (RBA) was calculated (RBA of the reference substance=100%).
Prostate cytosol of the castrated rat; prostates stored at −30° C.; buffer: TED with 10% glycerol as well as 2 μmol of triamcinolone acetonide. Tracer: ^3H-metribolone 4 nmol; reference substances: metribolone (RU 1881) or 5α-dihydrotestosterone.

Glucocorticoid receptor = molecular target: T2, Glucocorticoid receptor (Rattus norvegicus, UniProt P06536); assay: Receptor binding affinity, glucocorticoid receptor (competitive binding, 3H-dexamethasone); details: Dexamethasone = 100%; thymus cytosol of adrenalectomized rat
T2 construct: Thymus cytosol of the adrenalectomized rat; from tissue; host or cells: thymus cytosol of adrenalectomized rat
T2 sequence (P06536 1-795): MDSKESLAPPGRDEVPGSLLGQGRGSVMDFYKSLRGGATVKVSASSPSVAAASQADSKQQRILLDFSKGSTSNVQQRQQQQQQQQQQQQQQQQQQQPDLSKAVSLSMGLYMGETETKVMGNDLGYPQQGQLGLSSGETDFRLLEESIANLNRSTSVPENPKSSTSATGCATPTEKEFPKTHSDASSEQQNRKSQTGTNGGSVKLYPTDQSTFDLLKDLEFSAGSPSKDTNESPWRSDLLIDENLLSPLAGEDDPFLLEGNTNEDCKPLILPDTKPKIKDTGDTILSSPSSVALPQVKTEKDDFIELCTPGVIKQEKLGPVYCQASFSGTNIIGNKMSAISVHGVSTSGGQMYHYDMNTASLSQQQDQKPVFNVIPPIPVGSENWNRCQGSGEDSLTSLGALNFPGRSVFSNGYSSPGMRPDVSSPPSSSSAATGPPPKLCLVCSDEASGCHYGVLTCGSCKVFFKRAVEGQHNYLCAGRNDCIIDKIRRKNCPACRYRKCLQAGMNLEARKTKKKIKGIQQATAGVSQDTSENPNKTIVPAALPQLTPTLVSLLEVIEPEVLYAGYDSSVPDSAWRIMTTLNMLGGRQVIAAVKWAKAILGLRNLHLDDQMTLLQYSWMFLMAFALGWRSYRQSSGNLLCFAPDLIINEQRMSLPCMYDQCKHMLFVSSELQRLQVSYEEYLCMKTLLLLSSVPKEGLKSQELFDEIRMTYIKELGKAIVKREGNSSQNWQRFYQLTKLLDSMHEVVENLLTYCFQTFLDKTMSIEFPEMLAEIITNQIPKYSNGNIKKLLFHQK
Description: as §1, §2
Thymus cytosol of the adrenalectomized rat, thymi stored at −30° C.; buffer: TED. Tracer: ^3H-Dexamethasone, 20 nmol; reference substance: dexamethasone.

Compound: CC1(O)CCC2C3CCC4=CC(=O)CCC4=C3C(c3ccc(C=NO)cc3)CC21C (stereo not drawn) [Example 2, 4-(17β-Hydroxy-17α-methyl-3-oxoestra-4,9-dien-11β-yl)benzaldehyde-1(E)-oxime]
- Rate of Animals with Complete Inhibition of Nidation (adult female rats; 0.03 mg/animal/day s.c.): 0/4
- Rate of Animals with Complete Inhibition of Nidation (adult female rats; 0.1 mg/animal/day s.c.): 0/5
- Rate of Animals with Complete Inhibition of Nidation (adult female rats; 0.3 mg/animal/day s.c.): 2/5
- Rate of Animals with Complete Inhibition of Nidation (adult female rats; 1.0 mg/animal/day s.c.): 5/5
- AR relative molar binding affinity (RBA) a) against RU 1881 (Androgen receptor): a) 16%
- AR relative molar binding affinity (RBA) b) against dihydrotestosterone (DHT) (Androgen receptor): b) 23%
- GR relative molar binding affinity (RBA) (Glucocorticoid receptor): 12%

Compound: C[C@]12C[C@H](c3ccc(/C=N/O)cc3)C3=C4CCC(=O)C=C4CC[C@H]3[C@@H]1CC[C@@H]2O [Example 1, 4-(17β-Hydroxy-3-oxoestra-4,9-dien-11β-yl)benzaldehyde-1(E)-oxime]
- Rate of Animals with Complete Inhibition of Nidation (adult female rats; 1.0 mg/animal/day s.c.): 0/5
- Rate of Animals with Complete Inhibition of Nidation (adult female rats; 3.0 mg/animal/day s.c.): 0/5
- Rate of Animals with Complete Inhibition of Nidation (adult female rats; 10.0 mg/animal/day s.c.): 5/5
- AR relative molar binding affinity (RBA) a) against RU 1881 (Androgen receptor): a) 17%
- AR relative molar binding affinity (RBA) b) against dihydrotestosterone (DHT) (Androgen receptor): b) 24%
- GR relative molar binding affinity (RBA) (Glucocorticoid receptor): 3%
